According to patent publication US20120053196A1, “Combination Treatment of Breast Cancer” (priority 2009, published 2012):

Tests used:
[1] = tested on: ERα+/PR− tumors; conditions: follow-up period of 6 years, postmenopausal women; cited from earlier work
[2] = tested on: stage II invasive breast cancer; experiment: Randomized premenopausal cohort: two years of adjuvant tamoxifen vs control, recurrence free survival (Kaplan-Meier, log-rank) by HMGCR IHC status; assay type: in vivo, human; conditions: for outcome of HMGCR positive and ER negative patients vs HMGCR negative and ER positive patients: tamoxifen treated cohort
Excerpt: Between 1984 and 1991, 564 pre-menopausal women with primary breast cancer in the South and Southeast regions of Sweden were enrolled in a multi-centre clinical trial and randomly assigned to either two years of adjuvant tamoxifen (n=276) or a control group (n=288). […] The inclusion criteria were pre-menopausal patients, or patients younger than 50 years, with stage II (pT2 N0 M0, pT1-2 N1 M0) invasive breast cancer treated by modified mastectomy or breast conserving surgery with axillary lymph node dissection. Post-operative radiotherapy (50 Gy) was administered after breastconserving surgery and all lymph node-positive patients received locoregional radiotherapy. […] The study design is described in detail elsewhere (Rydén L et al, Eur J Cancer, 2005, 41(2): 256-64). Ethical permission was obtained from the Local Ethics Committees at Lund and Linköping Universities.
Tissue blocks from 500 of the 564 patients could be retrieved for TMA-construction. All cases had been histopathologically re-evaluated on hematoxylin and eosin stained slides. TMA:s were constructed by sampling 2×0.6 mm cores per case from areas representative of invasive cancer, using an manual arraying device (MTA-1, Beecher Inc, WI, USA). […] IHC staining of ER and PR had been performed previously. In line with current clinical praxis, a cut-off at 10% positive nuclei was used to define hormone receptor positively.
For statistical analyses, the cytoplasmic intensity (CI) level was evaluated, in line with what is described in Examples, Section 3 above. […] Two categories were defined: “HMGCR high” corresponding to CI=weak, moderate and strong and “HMGCR low” corresponding to CI=absent This classification of samples was used for RFS analysis according to the Kaplan-Meier estimator, and the log-rank test was used to compare survival in different strata. ER and PR negativity was defined as<10% positively staining nuclei, according to current clinical guidelines in Sweden. All statistical tests were two-sided, and p-values of<0.05 were considered significant. All calculations were made with the statistical package SPSS 17.0 (SPSS Inc. Illinois, USA).

[3] = tested on: ERα positive breast cancer; conditions: cited from earlier work
[4] = tested on: HMGCR; conditions: MCF7 cells, five days, 10 μM Simvastatin, 100 nM Tamoxifen, or a combination of both, FIG. 14
[5] = tested on: breast cancer; conditions: 5 years tamoxifen compared to no adjuvant treatment; cited from earlier work
[6] = tested on: HMGCR mRNA; experiment: qRT-PCR of HMGCR mRNA levels in MCF7 cells after Simvastatin/Tamoxifen treatment; assay type: cell-based; conditions: five days, 10 μM Simvastatin or 100 nM Tamoxifen, FIG. 15
Experimental: Total RNA was isolated using the mirVANA™ miRNA Isolation Kit (Ambion) and reverse transcribed using SuperScript II™ Reverse Transcriptase (Invitrogen) according to the manufacturer's instructions. […] Relative HMG-CoAR expression levels in breast cancer cell lines were calculated using the qBase real-time PCR relative quantification software with all samples normalized to 18s rRNA. Negative controls included a no template control and a no reverse transcriptase control. All qRT-PCR reactions were performed in triplicate.

[7] = tested on: ERα; conditions: MCF7 cells, five days, 10 μM Simvastatin, 100 nM Tamoxifen, or a combination of both, FIG. 14

Compound: CC(C)(C#N)c1cc(Cn2cncn2)cc(C(C)(C)C#N)c1 [anastrozole]
- recurrence rate compared to patients treated with tamoxifen [1]: halved

Compound: CC/C(=C(\c1ccccc1)c1ccc(OCCN(C)C)cc1)c1ccccc1 [tamoxifen]
- effect on RFS based on the HMGCR level ([2]; ER negative tamoxifen treated subjects, FIG. 7a): positive effect on RFS
- RFS, HMGCR high category vs HMGCR low ([2]; ER positive tamoxifen treated subjects, FIG. 2a): significantly better RFS
- effect of tamoxifen treatment on RFS ([2]; HMGCR negative and ER negative subjects, FIG. 10b): no positive effect
- survival upon tamoxifen treatment vs no adjuvant endocrine treatment ([2]; HMGCR positive and ER negative subjects, FIG. 9a): improved survival
- tamoxifen impact on survival (RFS) ([2]; HMGCR positive and PR negative subjects, FIG. 12, not statistically significant): trend of tamoxifen impact on survival
- effect of tamoxifen treatment on RFS ([2]; HMGCR positive or ER positive subjects, FIG. 10a): significantly positive effect
- response to tamoxifen treatment (RFS) ([2]; PR negative and HMGCR negative subjects, FIG. 11b): no response
- response to tamoxifen treatment (RFS) ([2]; PR positive and HMGCR positive subjects, FIG. 11a): significant response
- RFS associated with HMGCR expression ([2]; lymph node positive patients who received tamoxifen, FIG. 4a): improved RFS
- survival of HMGCR positive subjects ([2]; node negative subgroups treated with tamoxifen, FIGS. 4b and 5b, too few patients for significance): trend of better survival
- outcome of HMGCR positive and ER negative patients vs HMGCR negative and ER positive patients ([2]; node positive subjects, FIG. 6a): better outcome
- recurrence free survival (RFS), HMGCR high category vs HMGCR low category ([2]; patients treated with adjuvant tamoxifen, FIG. 1a): significantly better RFS
- survival upon tamoxifen treatment vs no adjuvant endocrine treatment ([2]; patients with HMGCR high tumors, irrespective of ER status, FIG. 8a): significantly improved survival
- survival upon tamoxifen treatment vs no adjuvant endocrine treatment ([2]; patients with HMGCR low tumors, irrespective of ER status, FIG. 8b): no impact on survival
- outcome of HMGCR positive and ER negative patients vs HMGCR negative and ER positive patients ([2]; FIG. 3a): better outcome
- fraction of patients who do not respond to tamoxifen treatment [3]: 30-40%
- HMGCR expression (Western blot) [4]: slight HMGCR expression
- reduction in breast cancer specific mortality [5]: 34%
- reduction in disease recurrence [5]: 41%
- HMGCR levels of mRNA after treatment [6]: slight increase
- ERα expression (Western blot) [7]: no ERα expression
